According to PMC8672735, “Computational and experimental investigation of the effect of cation structure on the solubility of anionic flow battery active-materials” (Chemical Science, 2021):
Where two headings read alike, the source gives them in different places.

Experiments:
[1] = in DMSO and MeCN at 0.01 M, 0.05 M, 0.1 M, 0.2 M, and 0.5 M; 25 °C
Procedure: The viscosity measurements were collected using the Cannon Instruments Semi-Micro Viscometer. Concentrations of 0.01 M– 0.55 M were used when collecting the viscosity data at ambient temperature (25 °C). The U-tube style viscometer allowed for the collection of kinematic viscosity in centiStokes (cSt) which was then converted to dynamic viscosity in centiPoise (cP) using the electrolyte density.

[2] = Experimental solubility of [Nxxxx]y[VBH] active materials (maximum concentration by UV-Vis spectroscopy); format: physicochemical; settings: anhydrous, organic solvent or mixture, read-out: Experimental solubility (maximum concentration of VBH in the electrolyte)
Text: To investigate the solubilities of VBH-based active materials, we synthesized the alkylammonium [VBH] compounds in their reduced (+4) and oxidized (+5) states ([Nxxxx]2[V(+4)BH] and [Nxxxx][V(+5)BH], where x = 1 (methyl), 2 (ethyl), 3 (n-propyl), 4 (n-butyl)) and measured their solubilities in tetrahydrofuran (THF), acetonitrile (MeCN), dimethyl sulfoxide (DMSO), and propylene carbonate (PC). […] This led us to explicitly explore the interplay between competing trends in solvation energy and lattice enthalpy, which was implied by our previous work,[5] using a combined computational and synthetic strategy.
UV-Vis spectra were collected using the Evolution 220 UV-visible spectrophotometer with a quartz cuvette of 1 cm path length. The molar extinction coefficients for oxidized and reduced species in all solvents except for DMSO were used as determined in our previous study.[5] Molar extinction coefficients for oxidized species in DMSO were determined from a calibration curve. Infrared spectra were collected on a Thermo Scientific Nicolet iS5 equipped with iD7ATR module and a diamond crystal. ^1H- and ^13C-NMRs were performed on Bruker AVANCE III HD 400 MHz High-Performance Digital NMR spectrometer operating at 400 MHz for ^1H NMR and 101 MHz for ^13C NMR. Data acquisition was performed on IconNMR 5.0.3, and spectra were processed in TopSpin 3.5 and Mnova. High-Resolution Mass Spectrometry (HRMS) was performed on a Waters ACQUITY UPLC Xevo QTOF high resolution mass spectrometer using electrospray ionization. X-ray crystallographic experiments were performed on a Bruker D8 Venture X-instrument, using Mo Kα radiation at 200 K. Data were corrected for absorption using SADABS. The structures were solved by direct methods. All non-hydrogen atoms were refined anisotropically by full matrix least-squares on F^2 and all hydrogen atoms except those on water were placed in calculated positions with appropriate riding parameters. Further refinement and molecular graphics were obtained using Bruker Suite of structural programs,[55] OLEX2,[56] and Mercury.[57]
Hydroxylamine hydrochloride (Alfa Aesar), sodium hydroxide (Acros organics), chloroacetic acid (BTC), zinc acetate dihydrate (Acros Organics), calcium chloride (VWR), tetramethylammonium fluoride tetrahydrate (Matrix Scientific), tetraethylammonium fluoride (BTC), triethylamine (Acros Organics), n-butylbromide (Alfa Aesar), n-propylbromide (BTC), ferrocenium hexafluorophosphate (Sigma Aldrich), and vanadyl (iv) acetylacetonate (BTC) were purchased from commercial sources and used as received. Information on the characterization of new materials and those that were reported previously, and were used for solubility studies herein, are provided below. Solvent used in solubility measurement were of anhydrous grade and purchased from Sigma Aldrich.

[3] = acetonitrile (MeCN), MeCN (ϵ = 37), +4 state, [Nxxxx]2[VBH]
[4] = acetonitrile (MeCN), MeCN (ϵ = 37), +5 state, [Nxxxx][VBH]
[5] = dimethyl sulfoxide (DMSO), DMSO (ϵ = 47), +4 state, [Nxxxx]2[VBH]
[6] = dimethyl sulfoxide (DMSO), DMSO (ϵ = 47), +5 state, [Nxxxx][VBH]
[7] = propylene carbonate (PC), PC (ϵ = 66), +4 state, [Nxxxx]2[VBH]
[8] = propylene carbonate (PC), PC (ϵ = 66), +5 state, [Nxxxx][VBH]

Structure (SMILES) | viscosity [1] | solubility [2, 3] [mM] | solubility [2, 4] [mM] | solubility [2, 5] [mM] | solubility [2, 6] [mM] | solubility [2, 7] [mM] | solubility [2, 8] [mM]
CCCC[N+](CCCC)(CCCC)CCCC [[N4444]2[VBH]] | generally increases with solution concentration | – | – | – | – | – | –
CCC[N+](C)(C)C [compound 1113] | – | 24 | 8 | 246 | 252 | 108 | 40
CCCC[N+](C)(C)C [compound 1114] | – | 76 | 7 | 624 | 225 | 377 | 33
CC[N+](CC)(CC)CC [compound 2222] | – | – | 64 | – | 804 | – | 215
